Results on two compounds are retold here after PMC8004375, “Pharmacokinetic Study of Safrole and Methyl Eugenol after Oral Administration of the Essential Oil Extracts of Asarum in Rats by GC-MS” (BioMed Research International, 2021).

The nature of data set [1]: Pharmacokinetic study in rat plasma after oral administration of Asarum essential oil extracts (GC-MS). In kind it is in vivo, Sprague–Dawley rats. The settings on record: oral Asarum extracts 20 g/kg; for MRT / Cmax / half-life / AUC(0-inf) / AUC(0-t) / Tmax / MRT last / MRT inf: male, Sprague-Dawley, in vivo; for MRT: 0−t or 0−∞ not specified, read-out: mean residence time; for Cmax: as stated in text without unit; for half-life: elimination half-life; for half-life / AUC(0-inf) / AUC(0-t) / Tmax / MRT last / MRT inf: n = 6, mean ± SD; for MRT last: read-out: MRT(0 − t); for MRT inf: read-out: MRT(0 − ∞). The protocol:
The GC–MS system (Shimadzu GC-MS QP-2010 Ultrasystem) was coupled with an AOC-20i autosampler. The column used was a DB-17 capillary column (30 m × 0.25 mm × 0.25 μm film thickness). 99.99% high purity Helium was used as the carrier gas with a flow rate of 1.3 mL/min. The column temperature was programmed as follows: initial temperature 90°C, 20°C/min to 106°C, 30°C/min to 136°C, 40°C/min to 210°C, and finally 5.5°C/min to 214°C. The injection volume was 1 μL, and the injection temperature was 250°C.
The MS data were acquired in the electron-impact mode, and the SIM mode was used for quantification. The three characteristic ions of safrole were 162.0, 131.0, and 104.0 and that of methyl eugenols were 178.0, 163.0, and 147.0 (ions in bold fonts were used for the quantification). The transfer line temperature was set at 250°C, and the ionization source temperature was set at 230°C. The total run time was 4.5 min with a solvent delay of 3 min.
100 μL plasma sample was incorporated with 10 μL n-hexane and 10 μL of IS (5 μg/mL) and vortexed for 30 seconds. 130 μL n-hexane was then added to the sample and vortex-mixed for 5 min. The samples were centrifuged (12,000 × g, 10 min, 4°C), and […] was injected for GC-MS analysis.
All animal protocols were approved by the Laboratory Animal Ethics Committee of Tianjin University Traditional Chinese Medicine (TCM-LAEC20190059). Six male Sprague–Dawley rats (body weight 240 ± 10 g) were fasted for 12 h prior to the study, with free access to water. The Asarum extracts were administered to rats orally at a dose of 20 g/kg. 0.5% CMC-Na aqueous solution was used to dissolve the Asarum extracts to a concentration of 2 g/mL suspension and stored at 4°C. Approximately 220 μL blood samples were collected from the suborbital vein into centrifuge tubes at 0, 0.08, 0.17, 0.5, 1, 2, 4, 6, 8, 10, 12, 24, 36, 48, and 60 h postadministration in rats. The plasma was separated by centrifugation at 4000 × g for 10 min immediately and frozen at -80°C until the time of analysis. The main program pharmacokinetic parameters were processed by Drug and Statistics 3.0 (Medical College of Wannan, China).

A short description of data set [2]: Stability of analytes in rat plasma (QC samples). The class given is in vitro ADME. To be noted: for Stability in plasma samples: all conditions studied: room temperature 4 h, three freeze-thaw cycles, auto-sampler 12 h, -80°C 7 days; for Measured concentration, three freeze-thaw cycles / Measured concentration, -80°C for 7 days / Measured concentration, auto-sampler for 12 h / Measured concentration, room temperature for 4 h: rat plasma, n = 6; for Measured concentration, three freeze-thaw cycles: freeze -20°C. On the procedure:
The stability was evaluated under different condition with variable time and temperature including long-term stability (storing the QC samples at -80°C for 7 days), short-term stability (storing the QC samples at room temperature for 4 h), freeze/thaw stability (three freeze (-20°C) thaw cycles), and auto-sampler stability (incubating the spiked samples for 12 h in auto-sampler).

For data set [3] the following is noted: International Agency for Research on Cancer classification; cited from earlier work.
Where [4] appears, read: high QC (spiked 12000 ng/mL safrole, 8000 ng/mL methyl eugenol).
Where [5] appears, read: low QC (spiked 120 ng/mL safrole, 80 ng/mL methyl eugenol).
Where [6] appears, read: medium QC (spiked 1200 ng/mL safrole, 800 ng/mL methyl eugenol).

Regarding `C=CCc1ccc2c(c1)OCO2` [Safrole], in data set [1], the MRT was found to be 18.4 ± 0.64 h, the concentration peaked (Cmax) at 1980 ± 267 ng/mL, the half-life is 2.44 ± 2.72 h and the AUC(0-inf) worked out at 53000 ± 5260 ng·h/mL. In data set [1], the AUC(0-t) is 53000 ± 5290 ng·h/mL, the Tmax was 13 ± 1.1 h, the MRT last was 18.4 ± 0.64 h and the MRT inf turned out to be 18.4 ± 0.63 h. Moreover, in data set [1], the “detectable in plasma samples after” value came to 48 h. Further, the “Stability in plasma samples” value in data set [2] was “stable”. In data set [2] (setting [4]), the “Measured concentration, three freeze-thaw cycles” value is 12526.3 ± 331.5 ng/mL; the “Measured concentration, -80°C for 7 days” value is given as 12741.7 ± 103.1 ng/mL; the “Measured concentration, auto-sampler for 12 h” value is listed as 12065.2 ± 210.7 ng/mL; the “Measured concentration, room temperature for 4 h” value (shortened to “Measured concentration … for 4 h”) amounted to 12751.7 ± 38.6 ng/mL. Besides, in data set [2] (setting [5]), the “Measured concentration, three freeze-thaw cycles” value turned out to be 137.0 ± 10.6 ng/mL; the “Measured concentration, -80°C for 7 days” value is listed as 135.1 ± 11.0 ng/mL; the “Measured concentration, auto-sampler for 12 h” value stood at 136.3 ± 11.8 ng/mL; the “Measured concentration … for 4 h” value came to 132.5 ± 12.4 ng/mL. Also, in data set [2] (setting [6]), the “Measured concentration, three freeze-thaw cycles” value came to 1319.7 ± 21.2 ng/mL; the “Measured concentration, -80°C for 7 days” value is recorded as 1348.1 ± 41.4 ng/mL; the “Measured concentration, auto-sampler for 12 h” value is listed as 1271.1 ± 3.3 ng/mL; the “Measured concentration … for 4 h” value came out at 1306.7 ± 15.7 ng/mL. In addition, the IARC carcinogen group result in data set [3] is “group 2B carcinogen”.
Consider `C=CCc1ccc(OC)c(OC)c1` [Methyl eugenol], for which, in data set [1], the MRT amounted to 10.6 ± 0.63 h, the Cmax amounted to 823 ± 124 ng/mL, the half-life was 3.67 ± 1.6 h and the AUC(0-inf) is 15300 ± 2790 ng·h/mL. For the same compound, in data set [1], the AUC(0-t) turned out to be 15200 ± 2760 ng·h/mL, the Tmax was determined as 6.67 ± 2.07 h, the MRT last is 10.6 ± 0.63 h and the MRT inf is 10.6 ± 0.63 h. This compound registered a completely metabolised after in data set [1] of 36 h. Also, the “Stability in plasma samples” value in data set [2] was “stable”. Besides, in data set [2] (setting [4]), the “Measured concentration, three freeze-thaw cycles” value was found to be 7287.0 ± 522.7 ng/mL; the “Measured concentration, -80°C for 7 days” value came to 7367.9 ± 638.7 ng/mL; the “Measured concentration, auto-sampler for 12 h” value amounted to 7100.8 ± 230.4 ng/mL; the “Measured concentration … for 4 h” value amounted to 7418.6 ± 62.9 ng/mL. Also, in data set [2] (setting [5]), the “Measured concentration, three freeze-thaw cycles” value turned out to be 78.5 ± 6.5 ng/mL; the “Measured concentration, -80°C for 7 days” value is reported as 81.0 ± 5.2 ng/mL; the “Measured concentration, auto-sampler for 12 h” value amounted to 73.9 ± 6.1 ng/mL; the “Measured concentration … for 4 h” value was 89.6 ± 8.8 ng/mL. Moreover, in data set [2] (setting [6]), the “Measured concentration, three freeze-thaw cycles” value amounted to 708.5 ± 16.2 ng/mL; the “Measured concentration, -80°C for 7 days” value stood at 749.8 ± 40.7 ng/mL; the “Measured concentration, auto-sampler for 12 h” value came to 727.7 ± 6.0 ng/mL; the “Measured concentration … for 4 h” value is 751.7 ± 7.8 ng/mL. Moreover, the IARC carcinogen group entry in data set [3] is “group 2B carcinogen”.
